According to article PMC6177136, “Hybrid topoisomerase I and HDAC inhibitors as dual action anticancer agents” (PLoS ONE, 2018):

Columns and labels:
DU145 = assay: Cytotoxicity assay (SRB, 72 h) DU145; format: cell-based, Human; details: Homo sapiens, DU-145, read-out: IC50 ± SD DU145
MM317 = assay: Cytotoxicity assay, primary mesothelioma MM317; format: cell-based, Human; details: Homo sapiens; epithelioid, 72 h, SBR assay; read-out: IC50 ± SD MM317
RAJI = assay: Cytotoxicity assay (MTT, 72 h) RAJI; format: cell-based; details: Homo sapiens, read-out: IC50 ± SD RAJI
U937 = assay: Cytotoxicity assay (MTT, 72 h) U937; format: cell-based; details: Homo sapiens, U-937, read-out: IC50 ± SD U937
RAMOS = assay: Cytotoxicity assay (MTT, 72 h) RAMOS; format: cell-based; details: Homo sapiens, read-out: IC50 ± SD RAMOS
[1] = mouse, in vivo, iv, 45 mg/kg
MM481 = assay: Cytotoxicity assay, primary mesothelioma MM481; format: cell-based, Human; details: Homo sapiens; epithelioid, 72 h, SBR assay; read-out: IC50 ± SD MM481
ARH-77 = assay: Cytotoxicity assay (MTT, 72 h) ARH-77; format: cell-based; details: Homo sapiens, read-out: IC50 ± SD ARH-77
p53 = assay: Western blot, p53 in NCI-H460 cells; format: cell-based, Human; details: 24 h; SAHA 5 μM, SN38 0.05 μM, 3d 0.125–0.2–0.5 μM
Description: (§1) The supernatant, containing the total proteins extracts, were transferred in new vials. The protein concentration was measured by Bradford Protein Assay. Equal amounts of proteins for each sample were then resolved by SDS-PAGE and loaded on 10–12% polyacrilamide gels. The proteins were then transferred on nitrocellulose membranes. Molecular weights were estimated based upon the relative migration with molecular weight protein markers.
(§2) The non-specific binding was blocked by incubation of membranes in TBS-tween (25 mM Tris, 150 mM NaCl, 0.1% Tween 20) with 5% nonfat dry milk (BIORAD, Milan) for 60 minutes. Subsequently, the membrane was incubated overnight with primary antibodies: anti-Histone H4 (Millipore, 1:500), anti-acetyl-H4 (Santa Cruz, 1:1000) anti-p21 (Santa Cruz, 1:1000), anti-acetyl-tubulin (abcam, 1:1000), anti-α-tubulin (Sigma, 1:5000), anti β-actin (Sigma, 1:5000) and anti-Topoisomerase 1 (Santa Cruz, 1:500). After three washes with TBST blots were incubated with HRP-coniugated secondary anti-mouse and anti-rabbit (Santa Cruz, 1:5000) 1 hour at room temperature. After three washes with TBST the blots were developed with ECL substrate (GE Healthcare) and chemiluminescence detected by ChemiDoc Imaging System (Biorad). The optical density of the protein bands detected by western blotting was normalized on α -tubulin levels and analyzed by ChemiDoc software (Biorad).
(§3) Cells were lysed in 0.5% NP-40 and 40 μg of total proteins were loaded on NuPAGE 4–12% (Invitrogen), transferred to a nitrocellulose paper and probed with specific antibodies.

MM404 = assay: Cytotoxicity assay, primary mesothelioma MM404; format: cell-based, Human; details: Homo sapiens; epithelioid, 72 h, SBR assay; read-out: IC50 ± SD MM404
MM472 = assay: Cytotoxicity assay, primary mesothelioma MM472; format: cell-based, Human; details: Homo sapiens; sarcomatoid, 72 h, SBR assay; read-out: IC50 ± SD MM472
[2] = system: hematologic cancer cell lines; assay: Screening on hematologic cancer cell lines (summary); format: cell-based; details: Homo sapiens, read-out: IC50 across hematologic cancer cell lines (Tables 5 and 6); span over the cell line panel, 72 h, MTT assay
NCI-H460 NSCLC cells = assay: FACS analysis of cell cycle and apoptosis; format: cell-based, Human; details: 72 h at own IC80 dose, PI staining
p16 = assay: Western blot, p16 in NCI-H460 cells; format: cell-based, Human; details: 24 h; SAHA 5 μM, SN38 0.05 μM, 3d 0.125–0.2–0.5 μM
Description: as §1, §2, §3

HepG2 = assay: Cytotoxicity assay (SRB, 72 h) HepG2; format: cell-based, Human; details: Homo sapiens, HepG2, read-out: IC50 ± SD HepG2
CycD1 = assay: Western blot, CycD1 in NCI-H460 cells; format: cell-based, Human; details: 24 h; SAHA 5 μM, SN38 0.05 μM, 3d 0.125–0.2–0.5 μM
Description: as §1, §2, §3

MM491 = assay: Cytotoxicity assay, primary mesothelioma MM491; format: cell-based, Human; details: Homo sapiens; biphasic, 72 h, SBR assay; read-out: IC50 ± SD MM491
MINO = assay: Cytotoxicity assay (MTT, 72 h) MINO; format: cell-based, Human; details: Homo sapiens, MINO; 72 h, MTT assay; read-out: IC50 ± SD MINO
OCI-LY3 = assay: Cytotoxicity assay (MTT, 72 h) OCI-LY3; format: cell-based, Human; details: Homo sapiens, OCI-Ly3; 72 h, MTT assay; read-out: IC50 ± SD OCI-LY3
Description: (§4) Human tumor cells were seeded in 96-well cell culture plastic plates, allowed to attach, and exposed to scalar concentrations of the test compounds.

HeLa = assay: Cytotoxicity assay (SRB, 72 h) HeLa; format: cell-based, Human; details: Homo sapiens, HeLa, read-out: IC50 ± SD HeLa
HT29 = assay: Cytotoxicity assay (SRB, 72 h) HT29; format: cell-based, Human; details: Homo sapiens, HT-29, read-out: IC50 ± SD HT29
H929 = assay: Cytotoxicity assay (MTT, 72 h) H929; format: cell-based; details: Homo sapiens, NCI-H929, read-out: IC50 ± SD H929
A431 = assay: Cytotoxicity assay (SRB, 72 h) A431; format: cell-based, Human; details: Homo sapiens, A-431, read-out: IC50 ± SD A431
L-428 = assay: Cytotoxicity assay (MTT, 72 h) L-428; format: cell-based, Human; details: Homo sapiens, L-428; 72 h, MTT assay; read-out: IC50 ± SD L-428
Description: as §4

[3] = system: human epithelioid mesothelioma MM473-Luc; assay: In vivo antitumor activity, orthotopic MM473-Luc xenograft; details: i.v. 45 mg/kg, q4dx3w, treatment from day 15
Acetylated Tubulin = assay: Western blot, acetylation of tubulin in NCI-H460 cells; format: cell-based, Human; details: 24 h; SN38 0.05 μM, SAHA 5 μM, 3b and 3d 0.125–0.2–0.5 μM
Description: as §1
as §2, with “software (Biorad). […]” for “software (Biorad).”

SMILES: CC[C@@]1(O)C(=O)OCc2c1cc1n(c2=O)Cc2c-1nc1ccc(O)cc1c2C=NOCCCCCC(=O)NO [Compound 3d, 6-(10-hydroxycamptothecin-7-ylmethyleneaminooxy)-hexanoic acid hydroxyamide]
- IC50 (DU145): 70 ± 3 nM
- IC50 (MM317): 850 ± 200 nM
- IC50 (RAJI): 77 ± 20 nM
- IC50 (U937): 180 ± 50 nM
- IC50 (RAMOS): 990 ± 100 nM
- body weight [1]: no reduction in body weight was observed
- IC50 (MM481): 11700 ± 1200 nM
- IC50 (ARH-77): 210 ± 60 nM
- p53 activation (p53): induced p53 activation
- IC50 (MM404): 1400 ± 300 nM
- IC50 (MM472): 48 ± 10 nM
- IC50 [2]: 6 to 4000 nM
- G0/1 (%) (NCI-H460 NSCLC cells): 12.1%
- G2/M (%) (NCI-H460 NSCLC cells): 11.9%
- S (%) (NCI-H460 NSCLC cells): 76.0%
- Sub-G0/1 (%) (NCI-H460 NSCLC cells; apoptosis): 15.2%
- P16 regulation (p16): didn’t show any effect
- IC50 (HepG2): 110 ± 30 nM
- CycD1 regulation (CycD1): didn’t show any effect
- IC50 (MM491): 870 ± 300 nM
- IC50 (MINO): 31 ± 10 nM
- IC50 (OCI-LY3): 18 ± 5 nM
- IC50 (HeLa): 180 ± 50 nM
- IC50 (HT29): 390 ± 100 nM
- IC50 (H929): 1100 ± 400 nM
- IC50 (A431): 140 ± 20 nM
- IC50 (L-428): 430 ± 70 nM
- antitumor activity (BLI signal, average radiance) [3]: strong antitumor activity
- accumulation of acetylated tubulin (Acetylated Tubulin): H4 and tubulin acetylation in a dose dependent manner
